Columns and labels:
Experiment in all cases: relative viability (nuclei count vs DMSO), 5 days (fraction); higher = more cells survive
[1] = system: HCC-15
Summary of the method: (§1)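 A single step with final 0.05% Triton X-100, 1% formaldehyde and 1 ug/ml Hoechst fixed the cells and stained nuclei 5 days after treatment. Lung cancer cell lines in 1536-well plates had been treated by pin tool the day after seeding with one drug alone or a fixed anchor-drug dose plus five library-drug doses (not always all listed) in √10 steps, and nuclei were counted on 4× images. Relative viability is the ratio of nuclei in treated wells to nuclei in vehicle wells, taken as the median of duplicate plates.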

[2] = system: NCI-H727
Summary of the method: as §1

[3] = system: HCC-78
Summary of the method: as §1

[4] = system: HARA
Summary of the method: as §1

[5] = system: HCC-366
Summary of the method: as §1

[6] = system: 201T
Summary of the method: as §1

[7] = system: PC-14
Summary of the method: as §1

[8] = system: NCI-H1437
Summary of the method: as §1

[9] = system: LCLC-97TM1
Summary of the method: as §1

[10] = system: COR-L23
Summary of the method: as §1

[11] = system: NCI-H2405
Summary of the method: as §1

[12] = system: NCI-H460
Summary of the method: as §1

[13] = system: LK-2
Summary of the method: as §1

[14] = system: COR-L 105
Summary of the method: as §1

[15] = system: A-427
Summary of the method: as §1

[16] = system: NCI-H2023
Summary of the method: as §1

[17] = system: NCI-H3122
Summary of the method: as §1

[18] = system: NCI-H1915
Summary of the method: as §1

[19] = system: NCI-H1563
Summary of the method: as §1

[20] = system: NCI-H1666
Summary of the method: as §1

[21] = system: NCI-H1944
Summary of the method: as §1

[22] = system: NCI-H1975
Summary of the method: as §1

[23] = system: HCC-44
Summary of the method: as §1

## Nc1cccc2c1CN(C1CCC(=O)NC1=O)C2=O (stereo not drawn) [Lenalidomide] + Cc1nc(Nc2ncc(C(=O)Nc3c(C)cccc3Cl)s2)cc(N2CCN(CCO)CC2)n1 [Dasatinib] (partner 0.075 µM)
[1]; first compound 0.253 µM
  relative viability: 0.629
[1]; first compound 0.8 µM
  relative viability: 0.526
[1]; first compound 2.53 µM
  relative viability: 0.816
[1]; first compound 8 µM
  relative viability: 0.527
[2]; first compound 0.253 µM
  relative viability: 0.357
[2]; first compound 0.8 µM
  relative viability: 0.326
[2]; first compound 2.53 µM
  relative viability: 0.335
[2]; first compound 8 µM
  relative viability: 0.384
[3]; first compound 0.253 µM
  relative viability: 0.52
[3]; first compound 0.8 µM
  relative viability: 0.371
[3]; first compound 2.53 µM
  relative viability: 0.465
[3]; first compound 8 µM
  relative viability: 0.308
[4]; first compound 0.253 µM
  relative viability: 0.3
[4]; first compound 2.53 µM
  relative viability: 0.293
[4]; first compound 8 µM
  relative viability: 0.287
[5]; first compound 0.253 µM
  relative viability: 0.661
[5]; first compound 0.8 µM
  relative viability: 0.622
[5]; first compound 2.53 µM
  relative viability: 0.752
[5]; first compound 8 µM
  relative viability: 0.334
[6]; first compound 0.253 µM
  relative viability: 0.598
[6]; first compound 2.53 µM
  relative viability: 0.581
[6]; first compound 8 µM
  relative viability: 0.538
[7]; first compound 0.253 µM
  relative viability: 0.236
[7]; first compound 0.8 µM
  relative viability: 0.28
[7]; first compound 2.53 µM
  relative viability: 0.281
[7]; first compound 8 µM
  relative viability: 0.304
[8]; first compound 0.253 µM
  relative viability: 0.536
[8]; first compound 0.8 µM
  relative viability: 0.45
[8]; first compound 2.53 µM
  relative viability: 0.485
[8]; first compound 8 µM
  relative viability: 0.442
[9]; first compound 0.253 µM
  relative viability: 0.634
[9]; first compound 0.8 µM
  relative viability: 0.939
[9]; first compound 2.53 µM
  relative viability: 0.909
[9]; first compound 8 µM
  relative viability: 0.886
[10]; first compound 0.253 µM
  relative viability: 0.541
[10]; first compound 0.8 µM
  relative viability: 0.507
[10]; first compound 2.53 µM
  relative viability: 0.63
[10]; first compound 8 µM
  relative viability: 0.569
[11]; first compound 0.253 µM
  relative viability: 0.23
[11]; first compound 0.8 µM
  relative viability: 0.185
[11]; first compound 2.53 µM
  relative viability: 0.217
[11]; first compound 8 µM
  relative viability: 0.21
[12]; first compound 0.253 µM
  relative viability: 0.597
[12]; first compound 0.8 µM
  relative viability: 0.473
[12]; first compound 2.53 µM
  relative viability: 0.673
[12]; first compound 8 µM
  relative viability: 0.308
[13]; first compound 0.253 µM
  relative viability: 0.401
[13]; first compound 0.8 µM
  relative viability: 0.332
[13]; first compound 2.53 µM
  relative viability: 0.249
[13]; first compound 8 µM
  relative viability: 0.172
[14]; first compound 0.253 µM
  relative viability: 0.433
[14]; first compound 0.8 µM
  relative viability: 0.331
[14]; first compound 2.53 µM
  relative viability: 0.427
[14]; first compound 8 µM
  relative viability: 0.371
[15]; first compound 0.253 µM
  relative viability: 0.58
[15]; first compound 0.8 µM
  relative viability: 0.851
[15]; first compound 2.53 µM
  relative viability: 0.752
[15]; first compound 8 µM
  relative viability: 0.644
[16]; first compound 0.253 µM
  relative viability: 0.612
[16]; first compound 0.8 µM
  relative viability: 0.515
[16]; first compound 2.53 µM
  relative viability: 0.608
[16]; first compound 8 µM
  relative viability: 0.416
[17]; first compound 0.253 µM
  relative viability: 0.897
[17]; first compound 0.8 µM
  relative viability: 0.991
[17]; first compound 2.53 µM
  relative viability: 0.746
[17]; first compound 8 µM
  relative viability: 0.677
[18]; first compound 0.253 µM
  relative viability: 0.321
[18]; first compound 0.8 µM
  relative viability: 0.329
[18]; first compound 2.53 µM
  relative viability: 0.301
[18]; first compound 8 µM
  relative viability: 0.245
[19]; first compound 0.253 µM
  relative viability: 0.477
[19]; first compound 0.8 µM
  relative viability: 0.43
[19]; first compound 2.53 µM
  relative viability: 0.499
[19]; first compound 8 µM
  relative viability: 0.464
[20]; first compound 0.253 µM
  relative viability: 0.858
[20]; first compound 2.53 µM
  relative viability: 0.849
[20]; first compound 8 µM
  relative viability: 0.783
[21]; first compound 0.253 µM
  relative viability: 0.239
[21]; first compound 0.8 µM
  relative viability: 0.251
[21]; first compound 2.53 µM
  relative viability: 0.208
[21]; first compound 8 µM
  relative viability: 0.173
[22]; first compound 0.253 µM
  relative viability: 0.406
[22]; first compound 0.8 µM
  relative viability: 0.287
[22]; first compound 2.53 µM
  relative viability: 0.486
[22]; first compound 8 µM
  relative viability: 0.366

## Nc1cccc2c1CN(C1CCC(=O)NC1=O)C2=O (stereo not drawn) [Lenalidomide] + N=C(N)NC(=N)NCCc1ccccc1 [Phenformin] (partner 250 µM)
[1]; first compound 0.253 µM
  relative viability: 0.474
[1]; first compound 0.8 µM
  relative viability: 0.489
[1]; first compound 2.53 µM
  relative viability: 0.53
[1]; first compound 8 µM
  relative viability: 0.482
[2]; first compound 0.253 µM
  relative viability: 0.613
[2]; first compound 0.8 µM
  relative viability: 0.53
[2]; first compound 2.53 µM
  relative viability: 0.505
[2]; first compound 8 µM
  relative viability: 0.423
[3]; first compound 0.253 µM
  relative viability: 0.825
[3]; first compound 0.8 µM
  relative viability: 0.625
[3]; first compound 2.53 µM
  relative viability: 0.909
[3]; first compound 8 µM
  relative viability: 0.448
[4]; first compound 0.253 µM
  relative viability: 0.414
[4]; first compound 2.53 µM
  relative viability: 0.595
[4]; first compound 8 µM
  relative viability: 0.417
[5]; first compound 0.253 µM
  relative viability: 0.564
[5]; first compound 0.8 µM
  relative viability: 0.547
[5]; first compound 2.53 µM
  relative viability: 0.691
[5]; first compound 8 µM
  relative viability: 0.548
[6]; first compound 0.253 µM
  relative viability: 0.448
[6]; first compound 2.53 µM
  relative viability: 0.444
[6]; first compound 8 µM
  relative viability: 0.404
[7]; first compound 0.253 µM
  relative viability: 0.637
[7]; first compound 0.8 µM
  relative viability: 0.454
[7]; first compound 2.53 µM
  relative viability: 0.606
[7]; first compound 8 µM
  relative viability: 0.548
[8]; first compound 0.253 µM
  relative viability: 0.276
[8]; first compound 0.8 µM
  relative viability: 0.248
[8]; first compound 2.53 µM
  relative viability: 0.839
[8]; first compound 8 µM
  relative viability: 0.363
[9]; first compound 0.253 µM
  relative viability: 0.378
[9]; first compound 0.8 µM
  relative viability: 0.409
[9]; first compound 2.53 µM
  relative viability: 0.485
[9]; first compound 8 µM
  relative viability: 0.365
[10]; first compound 0.253 µM
  relative viability: 0.412
[10]; first compound 0.8 µM
  relative viability: 0.412
[10]; first compound 2.53 µM
  relative viability: 0.508
[10]; first compound 8 µM
  relative viability: 0.45
[11]; first compound 0.253 µM
  relative viability: 0.382
[11]; first compound 0.8 µM
  relative viability: 0.416
[11]; first compound 2.53 µM
  relative viability: 0.416
[11]; first compound 8 µM
  relative viability: 0.351
[12]; first compound 0.253 µM
  relative viability: 0.462
[12]; first compound 0.8 µM
  relative viability: 0.522
[12]; first compound 2.53 µM
  relative viability: 0.671
[12]; first compound 8 µM
  relative viability: 0.563
[23]; first compound 0.253 µM
  relative viability: 0.272
[23]; first compound 2.53 µM
  relative viability: 0.184
[23]; first compound 8 µM
  relative viability: 0.216
[13]; first compound 0.253 µM
  relative viability: 0.575
[13]; first compound 0.8 µM
  relative viability: 0.262
[13]; first compound 2.53 µM
  relative viability: 0.656
[13]; first compound 8 µM
  relative viability: 0.229
[14]; first compound 0.253 µM
  relative viability: 0.464
[14]; first compound 0.8 µM
  relative viability: 0.523
[14]; first compound 2.53 µM
  relative viability: 0.554
[14]; first compound 8 µM
  relative viability: 0.513
[15]; first compound 0.253 µM
  relative viability: 0.317
[15]; first compound 0.8 µM
  relative viability: 0.324
[15]; first compound 2.53 µM
  relative viability: 0.421
[15]; first compound 8 µM
  relative viability: 0.311
[16]; first compound 0.253 µM
  relative viability: 0.405
[16]; first compound 0.8 µM
  relative viability: 0.522
[16]; first compound 2.53 µM
  relative viability: 0.431
[16]; first compound 8 µM
  relative viability: 0.407
[17]; first compound 0.253 µM
  relative viability: 0.379
[17]; first compound 0.8 µM
  relative viability: 0.387
[17]; first compound 2.53 µM
  relative viability: 0.395
[17]; first compound 8 µM
  relative viability: 0.457
[18]; first compound 0.253 µM
  relative viability: 0.358
[18]; first compound 0.8 µM
  relative viability: 0.373
[18]; first compound 2.53 µM
  relative viability: 0.401
[18]; first compound 8 µM
  relative viability: 0.406
[19]; first compound 0.253 µM
  relative viability: 0.667
[19]; first compound 0.8 µM
  relative viability: 0.774
[19]; first compound 2.53 µM
  relative viability: 0.697
[19]; first compound 8 µM
  relative viability: 0.613
[20]; first compound 0.253 µM
  relative viability: 0.331
[20]; first compound 2.53 µM
  relative viability: 0.635
[20]; first compound 8 µM
  relative viability: 0.527
[21]; first compound 0.253 µM
  relative viability: 0.213
[21]; first compound 0.8 µM
  relative viability: 0.191
[21]; first compound 2.53 µM
  relative viability: 0.223
[21]; first compound 8 µM
  relative viability: 0.174
[22]; first compound 0.253 µM
  relative viability: 0.402
[22]; first compound 0.8 µM
  relative viability: 0.35
[22]; first compound 2.53 µM
  relative viability: 0.474
[22]; first compound 8 µM
  relative viability: 0.336
